Measurements: patent US20160202206A1, “Matrix-Enhanced Electrochemical Detector for Pathogenic Bacteria” (NORTHEASTERN UNIVERSITY, priority 2013, published 2016)
Where two headings read alike, the source gives them in different places.

Assays:
P. aeruginosa cultures = conditions: cited from earlier work
[1] = tested on: P. aeruginosa strain PA14; assay type: cell-based, Pseudomonas aeruginosa; conditions: for effect on pyocyanin production: M63 minimal media or TSB, single amino acid added (tyrosine 3.2 mM, valine 17.6 mM); for up-regulatory effect on pyocyanin production compared with the other amino acids tested: six amino acids tested, M63 minimal media and TSB, scans over 24 hours; for time to appearance of a pyocyanin signal: M63 minimal media, versus no added amino acid (nearly 24 hours)
Procedure: All bacterial tests were completed using wild-type P. aeruginosa strain PA14. Cell cultures were routinely grown in trypticase soy broth (TSB) (BD Biosciences 211768) at 37° C. and later stored on TSB agar plates at 4° C. when not in use. All amino acids were purchased from Sigma-Aldrich (St. Louis, Mo.) and dissolved in solution using either TSB or M63 minimal salts medium (Fisher Cat. 50-751-6740) [(NH4)2SO4 (15 mM), KH2PO4 (100 mM)] supplemented with MgSO4 (1 mM) and glycerol (0.027 mM). Electrochemical measurements were performed using commercially available Zensor TE100 (EDAQ ET077) screenprinted electrodes featuring carbon working and counter electrodes. Although the Zensor TE100 electrodes include a silver paste reference, a separate 1 M KCl Ag/AgCl reference electrode (CHI111) was employed to minimize the chances of drift in reference potential during measurements lasting several hours, which can occur when the reference electrode is in direct contact with the sample solution. All electrochemical measurements were recorded using a potentiostat (CHI842C, CH Instruments).
Individual amino acids were dissolved at specific concentrations in either 10 mL of TSB or M63 media. Each solution was inoculated with a specific concentration of P. aeruginosa and incubated at 37 C. […] of each solution was removed at designated time points and loaded onto a Zensor electrode for electrochemical testing. Square-wave voltammetric scans were performed at potentials ranging from −0.4 to −0.1 V at an amplitude voltage of 0.050 V and a frequency of 15 Hz. Scans were performed for each sample three times with three replicates for each tested condition. The data was analyzed using OriginPro 9.1 (OriginLab Corporation). Baselines were created for each data set using spline interpolation with 8 base points. The resulting baseline-subtracted data set was used to determine the max currents observed from pyocyanin production.
Liquid cultures of P. aeruginosa were grown in either M63 minimal media or TSB to observe the effect of amino acid addition on the bacteria's production of pyocyanin using the methods described in Example 2. 10 μL of stock PA14 culture was loaded into 10 mL liquid cultures each containing one of six different amino acids (final concentration of 4 million cells per mL). […] Electrochemical scans were taken roughly every two hours over the course of a 24-hour period.
Tyrosine and valine were prepared at concentrations ranging from those quantified in typical cystic fibrosis infection levels (tyrosine: 0.2 mM, valine: 1.1 mM) to an 80-fold increase, which reached the solubility limit of the amino acids in TSB. The initial concentration of P. aeruginosa loaded in each sample was kept constant at roughly 4 million cells per mL and electrochemical scans were taken every two hours over the course of ten hours. FIGS. 11 A and B show scans taken after eight hours of growth in addition to a control with no amino acid additives. Again, consistent among all scans was the observance of a pyocyanin peak around −0.25 V vs. a Ag/AgCl reference. […] It is possible that valine has an inhibitory effect on pyocyanin production at such high concentrations. While such inhibition has been observed for other molecules (D. J. Musk, D. A. Banko and P. J. Hergenrother, Chem. Biol., 2005, 12, 789-796), P. aeruginosa has not been previously studied at valine concentrations that are over 100 times greater than what is typically found in a pseudomonal infection.
The next set of tests studied how varying the initial P. aeruginosa cell concentration would affect the production of pyocyanin in the presence of amino acids. TSB media was used as the growth media to which tyrosine and valine were added. Tyrosine (16 mM) and valine (17.6 mM) concentrations were held constant while varying amounts of P. aeruginosa were added into the samples (4, 20, 40, 400 million cells per mL). […]

Compound	effect on biofilm formation (P. aeruginosa cultures)	effect on pyocyanin production ([1]; 4 million cells per mL)	effect of varying amino acid concentration on amounts of pyocyanin produced after the critical time point ([1]; TSB, 4 million cells per mL)	effect of varying amino acid concentration on time needed for cells to up-regulate pyocyanin production ([1]; TSB, 4 million cells per mL)	rate of pyocyanin production, 16 mM tyrosine compared with 17.6 mM valine ([1]; TSB, 4 million cells per mL)	up-regulatory effect on pyocyanin production compared with the other amino acids tested [1]	time to appearance of a pyocyanin signal [1]	other results
N=C(N)NCCC[C@H](N)C(=O)O [arginine]	up-regulate biofilm formation							
O=C(O)[C@@H]1CCCN1 [proline]	up-regulate biofilm formation							
CC(C)C[C@H](N)C(=O)O [leucine]	up-regulate biofilm formation							
CC(C)[C@H](N)C(=O)O [valine]	up-regulate biofilm formation	up-regulatory effect	significant effect	minimal effect	nearly identical	largest up-regulatory effect of the six amino acids tested		pyocyanin production when concentration raised to 88 mM ([1]; TSB, 88 mM versus 17.6 mM valine): decreased; amino acid concentration giving the largest pyocyanin concentration ([1]; TSB, 4 million cells per mL, eight hours of growth): 17.6 mM
N[C@@H](Cc1ccc(O)cc1)C(=O)O [tyrosine]	up-regulate biofilm formation	up-regulatory effect	significant effect	minimal effect	nearly identical	greatest up-regulatory effect in both media	significantly less time	time of statistically significant increase in current output ([1]; TSB, 16 mM tyrosine, 400 million cells per mL, FIG. 14 A): between four and six hours; time of statistically significant increase in current output ([1]; TSB, 4 million cells per mL, FIG. 12 A): between six and eight hours; pyocyanin produced, 16 mM tyrosine versus 17.6 mM valine ([1]; TSB, initial cell concentrations above 4 million cells per mL): more pyocyanin than 17.6 mM valine; up-regulatory effect on pyocyanin production compared with the other amino acids tested ([1]; listed as Tyrosine): largest up-regulatory effect of the six amino acids tested
N[C@@H](Cc1c[nH]cn1)C(=O)O [histidine]	up-regulate biofilm formation						significantly less time	
